Ends that are not written are not given here. Peptide text beside a SMILES is read from it.
How the values were obtained:
CRF2R = target: T1, CRF2R (Homo sapiens, UniProt Q13324); assay: CRF2R agonist activation (EC50 / Emax), called comparative CRF binding; type: cell-based; settings: for Emax: read-out: CRF2R Emax; for EC50: read-out: CRF2R EC50
T1 sequence (Q13324 1-411): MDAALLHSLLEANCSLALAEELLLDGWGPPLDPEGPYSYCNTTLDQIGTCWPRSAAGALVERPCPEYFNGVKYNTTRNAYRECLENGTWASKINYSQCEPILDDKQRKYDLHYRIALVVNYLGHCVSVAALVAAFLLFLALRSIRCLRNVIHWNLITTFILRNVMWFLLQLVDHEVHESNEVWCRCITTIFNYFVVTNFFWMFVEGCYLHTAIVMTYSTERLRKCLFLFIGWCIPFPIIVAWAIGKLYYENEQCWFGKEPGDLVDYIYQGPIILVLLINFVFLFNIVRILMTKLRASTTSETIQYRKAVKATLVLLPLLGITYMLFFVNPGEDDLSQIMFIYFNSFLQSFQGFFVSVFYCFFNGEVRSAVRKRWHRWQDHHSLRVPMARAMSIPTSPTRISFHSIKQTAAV
Summary of the method: (§1)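 Agonism at each human CRF receptor subtype is inferred from increased cAMP relative to vehicle, using cells expressing that subtype and either lysate cAMP measurement or a cAMP response element reporter.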

CRF1R = target: T2, CRF1R (Homo sapiens, UniProt P34998); assay: CRF1R agonist activation (EC50 / Emax), called comparative CRF binding; type: cell-based; settings: for Emax: read-out: CRF1R Emax; for EC50: read-out: CRF1R EC50
T2 sequence (P34998 24-415): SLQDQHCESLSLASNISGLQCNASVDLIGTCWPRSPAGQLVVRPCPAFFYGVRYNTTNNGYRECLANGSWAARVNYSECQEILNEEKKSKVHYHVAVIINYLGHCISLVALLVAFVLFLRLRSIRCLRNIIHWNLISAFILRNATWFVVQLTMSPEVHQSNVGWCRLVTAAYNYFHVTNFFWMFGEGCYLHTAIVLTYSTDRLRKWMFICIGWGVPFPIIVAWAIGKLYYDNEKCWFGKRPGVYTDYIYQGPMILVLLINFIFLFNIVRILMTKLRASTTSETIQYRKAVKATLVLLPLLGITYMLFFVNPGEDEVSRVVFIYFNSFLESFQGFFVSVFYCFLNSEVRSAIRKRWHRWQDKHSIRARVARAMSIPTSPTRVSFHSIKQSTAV
Summary of the method: as §1

| Molecule | Emax (CRF2R) [%] | Emax (CRF1R) [%] | EC50 (CRF2R) [µM] | EC50 (CRF1R) [µM] |
| --- | --- | --- | --- | --- |
| CC[C@H](C)[C@H](N)C(=O)N[C@H](C(=O)N[C@@H](CC(C)C)C(=O)N[C@@H](CO)C(=O)N[C@@H](CC(C)C)C(=O)N[C@@H](CC(=O)O)C(=O)N[C@H](C(=O)N1CCC[C@H]1C(=O)N[C@H](C(=O)NCC(=O)N[C@@H](CC(C)C)C(=O)N[C@@H](CC(C)C)C(=O)N[C@@H](CCC(N)=O)C(=O)N[C@H](C(=O)N[C@@H](CC(C)C)C(=O)N[C@@H](CC(C)C)C(=O)N[C@@H](CCC(=O)O)C(=O)N[C@@H](CCC(N)=O)C(=O)N[C@H](C(=O)N[C@@H](CCCCN)C(=O)N[C@@H](C)C(=O)N[C@@H](CC(=O)O)C(=O)N[C@@H](CCC(N)=O)C(=O)N[C@@H](CC(C)C)C(=O)N[C@@H](C)C(=O)N[C@@H](CCC(N)=O)C(=O)N[C@@H](CCC(N)=O)C(=O)N[C@@H](C)C(=O)N[C@@H](Cc1c[nH]cn1)C(=O)N[C@@H](CO)C(=O)N[C@@H](CC(N)=O)C(=O)N[C@@H](CCCNC(=N)N)C(=O)N[C@@H](CCCCN)C(=O)N[C@@H](CC(C)C)C(=O)N[C@@H](CC(C)C)C(=O)N[C@@H](CC(=O)O)C(=O)N[C@H](C(=O)N[C@@H](C)C(N)=O)[C@@H](C)CC)[C@@H](C)O)[C@@H](C)CC)[C@@H](C)CC)C(C)C)C(C)C [compound 159] (H-IVLSLDVPIGLLQILLEQTKADQLAQQAHSNRKLLDIA-NH2; N-terminus assumed) | 62 | 9 |  |  |
| CC[C@H](C)[C@H](NC(=O)[C@H](CCCNC(=N)N)NC(=O)[C@H](C)NC(=O)[C@H](CC(N)=O)NC(=O)[C@H](CCC(N)=O)NC(=O)[C@H](CCC(=O)O)NC(=O)[C@H](C)NC(=O)[C@H](CCCNC(=N)N)NC(=O)[C@H](CCC(=O)O)NC(=O)[C@H](CCCNC(=N)N)NC(=O)[C@H](CCC(N)=O)NC(=O)[C@H](CO)NC(=O)[C@H](CCC(N)=O)NC(=O)[C@@H](NC(=O)[C@H](CCCCN)NC(=O)[C@H](CCC(=O)O)NC(=O)[C@H](CC(C)C)NC(=O)[C@H](CCC(=O)O)NC(=O)[C@H](CC(C)C)NC(=O)[C@H](CC(C)C)NC(=O)[C@@H](NC(=O)[C@H](CCCNC(=N)N)NC(=O)[C@H](CC(C)C)NC(=O)[C@H](CC(C)C)NC(=O)[C@H](CC(C)C)NC(=O)[C@H](CC(C)C)NC(=O)[C@@H]1CCCN1C(=O)[C@H](CC(C)C)NC(=O)[C@H](CC(=O)O)NC(=O)[C@@H](NC(=O)[C@H](CO)NC(=O)[C@H](CC(C)C)NC(=O)[C@H](CO)NC(=O)[C@@H]1CCCN1C(=O)[C@H](CC(N)=O)NC(=O)[C@@H](N)CC(=O)O)[C@@H](C)CC)[C@@H](C)O)[C@@H](C)O)C(=O)N[C@@H](Cc1ccccc1)C(=O)N[C@@H](CC(=O)O)C(=O)N[C@@H](CCCNC(=N)N)C(=O)N[C@H](C(N)=O)C(C)C [compound 338] (H-DNPSLSIDLPLLLLRTLLELEKTQSQRERAEQNARIFDRV-NH2; N-terminus assumed) | 77.5 | 41.1 |  |  |
| NDDPPISIDLPFHLLRNMIEMARIENEREQAGLNAKYLAEV-NH2 [compound 262] | 92.2 | 100 |  |  |
| CC[C@H](C)[C@H](NC(=O)[C@H](CC(N)=O)NC(=O)[C@H](C)NC(=O)[C@H](CC(N)=O)NC(=O)[C@H](CCC(N)=O)NC(=O)[C@H](CCC(=O)O)NC(=O)[C@H](C)NC(=O)[C@H](CCCNC(=N)N)NC(=O)[C@H](CCC(=O)O)NC(=O)[C@H](CCCNC(=N)N)NC(=O)[C@H](CCC(N)=O)NC(=O)[C@H](CO)NC(=O)[C@H](CCC(N)=O)NC(=O)[C@@H](NC(=O)[C@H](CCCCN)NC(=O)[C@H](CCC(=O)O)NC(=O)[C@H](CC(C)C)NC(=O)[C@H](CCC(=O)O)NC(=O)[C@H](CC(C)C)NC(=O)[C@H](CC(C)C)NC(=O)[C@@H](NC(=O)[C@H](CCCNC(=N)N)NC(=O)[C@H](CC(C)C)NC(=O)[C@H](CC(C)C)NC(=O)[C@H](CC(C)C)NC(=O)[C@H](CC(C)C)NC(=O)[C@@H]1CCCN1C(=O)[C@H](CC(C)C)NC(=O)[C@H](CC(=O)O)NC(=O)[C@@H](NC(=O)[C@H](CO)NC(=O)[C@H](CC(C)C)NC(=O)[C@H](CO)NC(=O)[C@@H]1CCCN1C(=O)[C@H](CC(N)=O)NC(=O)[C@@H](N)CC(=O)O)[C@@H](C)CC)[C@@H](C)O)[C@@H](C)O)C(=O)N[C@@H](Cc1ccccc1)C(=O)N[C@@H](C)C(=O)N[C@@H](CC(N)=O)C(=O)N[C@H](C(N)=O)C(C)C [compound 326] (H-DNPSLSIDLPLLLLRTLLELEKTQSQRERAEQNANIFANV-NH2; N-terminus assumed) | 100 | 30.1 | 0.0337 | ≥ 1 |
| CC[C@H](C)[C@H](NC(=O)[C@H](CCC(=O)O)NC(=O)[C@H](C)NC(=O)[C@H](CC(N)=O)NC(=O)[C@H](CCC(N)=O)NC(=O)[C@H](CCC(=O)O)NC(=O)[C@H](C)NC(=O)[C@H](CCCNC(=N)N)NC(=O)[C@H](CCC(=O)O)NC(=O)[C@H](CCCNC(=N)N)NC(=O)[C@H](CCC(N)=O)NC(=O)[C@H](CO)NC(=O)[C@H](CCC(N)=O)NC(=O)[C@@H](NC(=O)[C@H](CCCCN)NC(=O)[C@H](CCC(=O)O)NC(=O)[C@H](CC(C)C)NC(=O)[C@H](CCC(=O)O)NC(=O)[C@H](CC(C)C)NC(=O)[C@H](CC(C)C)NC(=O)[C@@H](NC(=O)[C@H](CCCNC(=N)N)NC(=O)[C@H](CC(C)C)NC(=O)[C@H](CC(C)C)NC(=O)[C@H](CC(C)C)NC(=O)[C@H](CC(C)C)NC(=O)[C@@H]1CCCN1C(=O)[C@H](CC(C)C)NC(=O)[C@H](CC(=O)O)NC(=O)[C@@H](NC(=O)[C@H](CO)NC(=O)[C@H](CC(C)C)NC(=O)[C@H](CO)NC(=O)[C@@H]1CCCN1C(=O)[C@H](CC(N)=O)NC(=O)[C@@H](N)CC(=O)O)[C@@H](C)CC)[C@@H](C)O)[C@@H](C)O)C(=O)N[C@@H](Cc1ccccc1)C(=O)N[C@@H](C)C(=O)N[C@@H](CCC(=O)O)C(=O)N[C@H](C(N)=O)C(C)C [compound 323] (H-DNPSLSIDLPLLLLRTLLELEKTQSQRERAEQNAEIFAEV-NH2; N-terminus assumed) | 100 | 36.9 |  |  |
| CC[C@H](C)[C@H](NC(=O)[C@H](CCCNC(=N)N)NC(=O)[C@H](C)NC(=O)[C@H](CC(N)=O)NC(=O)[C@H](CCC(N)=O)NC(=O)[C@H](CCC(=O)O)NC(=O)[C@H](C)NC(=O)[C@H](CCCNC(=N)N)NC(=O)[C@H](CCC(=O)O)NC(=O)[C@H](CCCNC(=N)N)NC(=O)[C@H](CCC(N)=O)NC(=O)[C@H](CO)NC(=O)[C@H](CCC(N)=O)NC(=O)[C@@H](NC(=O)[C@H](CCCCN)NC(=O)[C@H](CCC(=O)O)NC(=O)[C@H](CC(C)C)NC(=O)[C@H](CCC(=O)O)NC(=O)[C@H](CC(C)C)NC(=O)[C@H](CC(C)C)NC(=O)[C@@H](NC(=O)[C@H](CCCNC(=N)N)NC(=O)[C@H](CC(C)C)NC(=O)[C@H](CC(C)C)NC(=O)[C@@H](NC(=O)[C@H](CC(C)C)NC(=O)[C@@H]1CCCN1C(=O)[C@H](CC(C)C)NC(=O)[C@H](CC(=O)O)NC(=O)[C@@H](NC(=O)[C@H](CO)NC(=O)[C@H](CC(C)C)NC(=O)[C@H](CO)NC(=O)[C@@H]1CCCN1C(=O)[C@H](CC(N)=O)NC(=O)[C@@H](N)CC(=O)O)[C@@H](C)CC)[C@@H](C)CC)[C@@H](C)O)[C@@H](C)O)C(=O)N[C@@H](Cc1ccccc1)C(=O)N[C@@H](C)C(=O)N[C@@H](CCCNC(=N)N)C(=O)N[C@H](C(N)=O)C(C)C [compound 335] (H-DNPSLSIDLPLILLRTLLELEKTQSQRERAEQNARIFARV-NH2; N-terminus assumed) | 91 | 49.5 | 0.028 | ≥ 1 |
| CC[C@H](C)[C@H](N)C(=O)N[C@H](C(=O)N[C@@H](CC(C)C)C(=O)N[C@@H](CO)C(=O)N[C@@H](CC(C)C)C(=O)N[C@@H](CC(=O)O)C(=O)N[C@H](C(=O)N1CCC[C@H]1C(=O)N[C@H](C(=O)NCC(=O)N[C@@H](CC(C)C)C(=O)N[C@@H](CC(C)C)C(=O)N[C@@H](CCC(N)=O)C(=O)N[C@H](C(=O)N[C@@H](CC(C)C)C(=O)N[C@@H](CC(C)C)C(=O)N[C@@H](CCC(=O)O)C(=O)N[C@@H](CCC(N)=O)C(=O)N[C@@H](C)C(=O)N[C@@H](CCCNC(=N)N)C(=O)N[C@@H](Cc1c[nH]cn1)C(=O)N[C@@H](C)C(=O)N[C@@H](C)C(=O)N[C@@H](C)C(=O)N[C@@H](Cc1c[nH]cn1)C(=O)N[C@@H](C)C(=O)N[C@@H](C)C(=O)N[C@@H](C)C(=O)N[C@@H](Cc1c[nH]cn1)C(=O)N[C@@H](C)C(=O)N[C@@H](CCC(N)=O)C(=O)N[C@@H](C)C(=O)N[C@@H](Cc1c[nH]cn1)C(=O)N[C@H](C(=O)N[C@@H](CC(C)C)C(=O)N[C@@H](C)C(=O)N[C@@H](Cc1c[nH]cn1)C(=O)N[C@H](C(N)=O)C(C)C)[C@@H](C)CC)[C@@H](C)CC)[C@@H](C)CC)C(C)C)C(C)C [compound 367] (H-IVLSLDVPIGLLQILLEQARHAAAHAAAHAQAHILAHV-NH2) | 18 | 6 | ≥ 0.1 | ≥ 1 |
| NDDPPISIDLPFQLLRNMIEMARIENEREQAGLNAKYLAEV-NH2 [compound 258] | 49.3 | 23.6 |  |  |
| HHHHHHIVLSLDVPIGLLQILLEQARARAAREQATTNARILARN-NH2 [compound 296] | 65 | 4 |  |  |
| SQEPPISLDLPFYLLREVLEMTKADQLAQQAHSNRKLLDIA-NH2 [compound 96] | 12.5 | 16.3 |  |  |
